Test system: 349418-098-R-PDC complex spheroid growth
Experiment: Anticancer human tumor 349418-098-R-PDC patient-derived lung adenocarcinoma cell line growth inhibition [AhR]
Conditions: for IC50: curve of first compound; for viability, T/C: stronger effect = lower value
Summary of the method: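 Agents were dosed in half-log steps down from roughly clinical Cmax, or from 10 microM where Cmax was unknown, alone and with AhR antagonists. Read-out: percent test/control growth of tumor spheroids containing HUVEC and MSC stromal cells.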

[1] = second compound 0.1 µM, first compound 0.0316 µM
[2] = second compound 0.1 µM, first compound 0.1 µM
[3] = second compound 0.1 µM, first compound 0.316 µM
[4] = second compound 0.1 µM, first compound 1 µM
[5] = second compound 0.1 µM, first compound 3.16 µM
[6] = second compound 0.1 µM, first compound 10 µM
[7] = second compound 0.316 µM, first compound 0.0316 µM
[8] = second compound 0.316 µM, first compound 0.1 µM
[9] = second compound 0.316 µM, first compound 0.316 µM
[10] = second compound 0.316 µM, first compound 1 µM
[11] = second compound 0.316 µM, first compound 3.16 µM
[12] = second compound 0.316 µM, first compound 10 µM
[13] = second compound 1 µM, first compound 0.0316 µM
[14] = second compound 1 µM, first compound 0.1 µM
[15] = second compound 1 µM, first compound 0.316 µM
[16] = second compound 1 µM, first compound 1 µM
[17] = second compound 1 µM, first compound 3.16 µM
[18] = second compound 1 µM, first compound 10 µM
[19] = second compound 3.16 µM, first compound 0.0316 µM
[20] = second compound 3.16 µM, first compound 0.1 µM
[21] = second compound 3.16 µM, first compound 0.316 µM
[22] = second compound 3.16 µM, first compound 1 µM
[23] = second compound 3.16 µM, first compound 3.16 µM
[24] = second compound 3.16 µM, first compound 10 µM
[25] = second compound 10 µM, first compound 0.0316 µM
[26] = second compound 10 µM, first compound 0.1 µM
[27] = second compound 10 µM, first compound 0.316 µM
[28] = second compound 10 µM, first compound 1 µM
[29] = second compound 10 µM, first compound 3.16 µM
[30] = second compound 10 µM, first compound 10 µM
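Note: spheroids exposed to agents for seven days before luminescence viability read.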
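Throughout, for viability, T/C: spheroids also contain HUVEC endothelial cells and human MSC stroma.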

Row | IC50 (second compound 0.1 µM) [nM] | IC50 (second compound 0.316 µM) [nM] | IC50 (second compound 1 µM) [nM] | IC50 (second compound 3.16 µM) [nM] | IC50 (second compound 10 µM) [nM] | SMILES | viability, T/C [1] [%] | viability, T/C [2] [%] | viability, T/C [3] [%] | viability, T/C [4] [%] | viability, T/C [5] [%] | viability, T/C [6] [%] | viability, T/C [7] [%] | viability, T/C [8] [%] | viability, T/C [9] [%] | viability, T/C [10] [%] | viability, T/C [11] [%] | viability, T/C [12] [%] | viability, T/C [13] [%] | viability, T/C [14] [%] | viability, T/C [15] [%] | also measured
1 | 612 | 759 | 517 | < 31.6 | < 31.6 | Nc1ccccc1NC(=O)c1ccc(CNC(=O)OCc2cccnc2)cc1 + Cc1cncc(-c2nc(NCCc3c[nH]c4ccccc34)c3ncn(C(C)C)c3n2)c1 | 79.9 | 69.6 | 58.4 | 46.7 | 19.9 | 4.89 | 69.7 | 73.5 | 57.3 | 47.7 | 25.6 | 4.93 | 72.6 | 67.5 | 54.9 | viability, T/C [16]: 43.2%; viability, T/C [17]: 20.1%; viability, T/C [18]: 4.95%; viability, T/C [19]: 12.8%; viability, T/C [20]: 15.7%; viability, T/C [21]: 9.2%; viability, T/C [22]: 12.1%; viability, T/C [23]: 7.68%; viability, T/C [24]: 2.59%; viability, T/C [25]: 1%; viability, T/C [26]: 1.06%; viability, T/C [27]: 0.67%; viability, T/C [28]: 0.76%; viability, T/C [29]: 0.51%; viability, T/C [30]: 0.34%
2 | 682 | 524 | 598 | < 31.6 | < 31.6 | O=C(C=Cc1cccc(S(=O)(=O)Nc2ccccc2)c1)NO + Cc1cncc(-c2nc(NCCc3c[nH]c4ccccc34)c3ncn(C(C)C)c3n2)c1 | 90.6 | 79.1 | 67.8 | 43.2 | 13.2 | 1.82 | 85.2 | 68.9 | 59.3 | 43.5 | 11.3 | 1.83 | 76.4 | 75.8 | 61.1 | viability, T/C [16]: 41.3%; viability, T/C [17]: 10.3%; viability, T/C [18]: 1.94%; viability, T/C [19]: 30.8%; viability, T/C [20]: 34.8%; viability, T/C [21]: 37.9%; viability, T/C [22]: 22.7%; viability, T/C [23]: 7.91%; viability, T/C [24]: 1.33%; viability, T/C [25]: 3.17%; viability, T/C [26]: 3.68%; viability, T/C [27]: 2.97%; viability, T/C [28]: 1.98%; viability, T/C [29]: 1.53%; viability, T/C [30]: 0.75%
3 | > 10000 | > 10000 | > 10000 | < 31.6 | < 31.6 | O=C(c1cc(Cc2n[nH]c(=O)c3ccccc23)ccc1F)N1CCN(C(=O)C2CC2)CC1 + Cc1cncc(-c2nc(NCCc3c[nH]c4ccccc34)c3ncn(C(C)C)c3n2)c1 | 75.7 | 91.6 | 98.3 | 89.9 | 75.2 | 58.8 | 94.8 | 102 | 99.4 | 82.3 | 74.7 | 64.4 | 81.7 | 86.7 | 84.1 | viability, T/C [16]: 67.2%; viability, T/C [17]: 75.5%; viability, T/C [18]: 65.1%; viability, T/C [19]: 17.7%; viability, T/C [20]: 19%; viability, T/C [21]: 14.9%; viability, T/C [22]: 12.7%; viability, T/C [23]: 15%; viability, T/C [24]: 13.9%; viability, T/C [25]: 1.12%; viability, T/C [26]: 1.3%; viability, T/C [27]: 0.99%; viability, T/C [28]: 1.23%; viability, T/C [29]: 1.33%; viability, T/C [30]: 1.37%

Source: PubChem BioAssay AID1918996 (Molecular Pharmacology Branch, DTP, NCI, 2023)
